Test results from article PMC7110780, “Multimodular fused acetyl–feruloyl esterases from soil and gut Bacteroidetes improve xylanase depolymerization of recalcitrant biomass” (Biotechnology for Biofuels, 2020).

Biological target: T1, BoCE6–CE1 (Bacteroides ovatus, UniProt A0ABU3ING8)
T1 construct: gene RO706_05995
Assay: absorbance […] nm
Type: biochemical
Details: […] °C, […] buffer

T1 sequence (A0ABU3ING8 20-638): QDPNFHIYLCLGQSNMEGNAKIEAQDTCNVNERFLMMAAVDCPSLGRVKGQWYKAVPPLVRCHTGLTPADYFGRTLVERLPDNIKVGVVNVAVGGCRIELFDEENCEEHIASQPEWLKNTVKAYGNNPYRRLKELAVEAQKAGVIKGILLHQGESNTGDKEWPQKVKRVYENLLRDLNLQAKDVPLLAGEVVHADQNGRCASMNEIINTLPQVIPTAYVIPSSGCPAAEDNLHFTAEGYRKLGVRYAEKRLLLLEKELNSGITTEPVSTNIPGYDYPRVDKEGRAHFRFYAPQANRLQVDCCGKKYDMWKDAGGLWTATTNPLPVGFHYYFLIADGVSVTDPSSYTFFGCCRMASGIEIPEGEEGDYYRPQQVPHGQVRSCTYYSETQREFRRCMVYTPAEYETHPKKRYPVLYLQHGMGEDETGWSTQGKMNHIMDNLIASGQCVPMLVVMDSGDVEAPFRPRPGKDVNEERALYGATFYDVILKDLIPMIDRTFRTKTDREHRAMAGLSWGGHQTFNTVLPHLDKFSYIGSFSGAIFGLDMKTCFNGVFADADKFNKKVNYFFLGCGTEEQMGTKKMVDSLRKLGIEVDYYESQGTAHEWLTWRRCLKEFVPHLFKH

SMILES	absorbance 340 nm
COC(=O)/C=C/c1ccc(O)c(OC)c1 [MFA]	The activity on MFA and MSA was in the same order of magnitude for the full-length
COC(=O)/C=C/c1cc(OC)c(O)c(OC)c1 [MSA]	The activity on MFA and MSA was in the same order of magnitude for the full-length
